These results are taken from patent publication US7704971B2, “Uracil reductase inactivators” (SmithKlineBeecham Corporation, priority 1990, dated 2010).

Read-outs that look alike come from different tables or passages of the source. Marks after values point to notes of the source that are not given here.

Series [1] deals with T1, Uracil reductase (dihydropyrimidine dehydrogenase, EC 1.3.1.2) (Bos taurus, UniProt Q28007).
T1 construct: purified from bovine liver; from tissue; host or cells: bovine liver
T1 sequence (Q28007 1-1025): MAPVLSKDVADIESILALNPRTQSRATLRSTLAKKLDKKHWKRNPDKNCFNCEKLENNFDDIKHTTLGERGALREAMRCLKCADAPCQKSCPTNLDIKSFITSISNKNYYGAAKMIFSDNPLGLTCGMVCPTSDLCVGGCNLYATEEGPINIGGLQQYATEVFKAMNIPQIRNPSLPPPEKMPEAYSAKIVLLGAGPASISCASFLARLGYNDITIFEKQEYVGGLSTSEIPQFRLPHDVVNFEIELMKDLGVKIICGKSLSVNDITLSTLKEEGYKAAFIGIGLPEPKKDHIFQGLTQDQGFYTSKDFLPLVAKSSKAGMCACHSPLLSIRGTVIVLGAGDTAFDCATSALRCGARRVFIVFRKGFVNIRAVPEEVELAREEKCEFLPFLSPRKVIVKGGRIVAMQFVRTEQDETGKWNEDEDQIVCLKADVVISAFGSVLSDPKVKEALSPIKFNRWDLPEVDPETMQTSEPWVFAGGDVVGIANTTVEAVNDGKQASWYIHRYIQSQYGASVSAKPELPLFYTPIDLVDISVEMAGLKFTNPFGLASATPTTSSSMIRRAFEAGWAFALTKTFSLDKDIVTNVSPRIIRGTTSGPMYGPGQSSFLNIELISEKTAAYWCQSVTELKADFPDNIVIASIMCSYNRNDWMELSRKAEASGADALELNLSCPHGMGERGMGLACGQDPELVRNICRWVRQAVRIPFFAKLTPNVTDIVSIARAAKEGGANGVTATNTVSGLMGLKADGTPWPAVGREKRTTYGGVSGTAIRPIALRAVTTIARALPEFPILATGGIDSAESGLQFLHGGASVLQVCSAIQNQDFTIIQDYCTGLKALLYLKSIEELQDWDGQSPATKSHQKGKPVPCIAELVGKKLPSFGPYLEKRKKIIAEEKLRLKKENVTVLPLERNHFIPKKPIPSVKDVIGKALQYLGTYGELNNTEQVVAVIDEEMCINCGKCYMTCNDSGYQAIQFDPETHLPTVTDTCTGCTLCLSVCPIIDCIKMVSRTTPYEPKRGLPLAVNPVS
Description: Determination of uracil reductase inactivation. In kind it is biochemical, bovine. As to conditions: for inhibition at 100 µM: 0.5 h; for relative first-order rate constants for inactivation of enzyme (parenthetical values): 50 micromol inactivator, fractional activity vs time of incubation. As for the experimental part:
Uracil reductase (1 micromolar) (dihydropyrimidine dehydrogenase, EC 1.3.1.2) purified from bovine liver was incubated with 100 micromolar inactivator and 5 mM dithiothreitol (enzyme reductant) at 37° for 30 minutes in 0.05 M Tris-HCl at pH 8.0. The enzyme and inactivator were diluted 100-fold into the assay buffer, which contained 200 micromolar NADPH, 200 micromolar thymine and 1 mM dithiothreitol in Tris-HCl at pH 8.0. The velocity of the enzyme was determined spectrophotometrically. These velocities have been corrected for NADPH oxidase activity, which was less than […] of the rate of thymine-dependent oxidation of NADPH. The % inactivation of the enzyme was equal to 100% minus the percent of enzymatic activity remaining. Enzyme incubated without inhibitor was stable under these conditions. Parenthetical values are the relative first-order rate constants for inactivation of enzyme determined from similar experiments where the fractional activity was measured as a function of the time of incubation of 50 micromol inactivator with enzyme.

Series [2] deals with T2, dihydrothymidine dehydrogenase (Homo sapiens, UniProt Q12882).
T2 sequence (Q12882 4-1025): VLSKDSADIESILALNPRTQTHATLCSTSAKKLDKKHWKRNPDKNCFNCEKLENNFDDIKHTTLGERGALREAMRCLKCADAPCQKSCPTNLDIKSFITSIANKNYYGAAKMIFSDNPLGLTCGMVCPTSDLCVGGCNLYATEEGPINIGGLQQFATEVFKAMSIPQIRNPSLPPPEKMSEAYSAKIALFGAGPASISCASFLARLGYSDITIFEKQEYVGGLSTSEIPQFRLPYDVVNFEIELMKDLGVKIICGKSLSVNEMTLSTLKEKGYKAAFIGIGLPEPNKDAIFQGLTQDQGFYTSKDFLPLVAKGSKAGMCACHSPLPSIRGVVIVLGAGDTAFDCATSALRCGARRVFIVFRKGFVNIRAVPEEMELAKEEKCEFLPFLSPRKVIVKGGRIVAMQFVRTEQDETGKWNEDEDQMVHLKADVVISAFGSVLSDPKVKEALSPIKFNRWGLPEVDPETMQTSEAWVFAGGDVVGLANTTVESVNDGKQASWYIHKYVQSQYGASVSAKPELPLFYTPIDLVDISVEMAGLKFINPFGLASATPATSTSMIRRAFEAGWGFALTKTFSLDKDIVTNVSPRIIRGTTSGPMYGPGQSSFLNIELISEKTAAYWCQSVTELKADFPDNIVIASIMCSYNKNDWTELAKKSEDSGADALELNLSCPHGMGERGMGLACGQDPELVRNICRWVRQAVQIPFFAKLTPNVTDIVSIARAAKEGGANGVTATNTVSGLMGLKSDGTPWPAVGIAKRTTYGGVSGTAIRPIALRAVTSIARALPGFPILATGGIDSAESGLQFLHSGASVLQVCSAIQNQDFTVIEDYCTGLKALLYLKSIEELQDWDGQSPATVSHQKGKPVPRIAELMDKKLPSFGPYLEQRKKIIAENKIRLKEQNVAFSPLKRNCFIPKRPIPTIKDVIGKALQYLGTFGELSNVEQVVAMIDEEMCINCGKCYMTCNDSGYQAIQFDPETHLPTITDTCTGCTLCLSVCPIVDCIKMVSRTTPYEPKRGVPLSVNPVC
The conditions noted are these: Cancer Research 46, 1094, 1986; cited from earlier work.

The conditions of series [3]: in vivo; cited from earlier work.
For series [4], the system named is Colon 38 tumor. The series can be described thus: Potentiation of the antitumor activity of 5-FU by EU, Colon 38 tumor in mice. It is filed as in vivo. The method, then:
Colon 38 tumor was implanted in mice on day zero. Mice (8 per group) were treated with 5-FU on days one through nine with the doses indicated in Table 2 EU was dosed i.p. at 2 mg/kg 30 minutes prior to 5-FU dosing where indicated.

The mark [5] stands for this setting: 100 micromolar inactivator, 1 micromolar enzyme, 5 mM dithiothreitol, 37° for 30 minutes, pH 8.0, read-out: % Inactivation.

What is called melting point is the temperature of the solid-liquid transition.

`CCCCC#Cc1c[nH]c(=O)[nH]c1=O` [5-hex-1-ynyluracil]: the inhibition at 100 µM in series [1] (setting [5]) was 90%.

`O=c1[nH]cc(C(F)(F)F)c(=O)[nH]1` [5-trifluoromethyluracil]: the inhibition at 100 µM in series [1] (setting [5]) is 75%.

Consider `O=c1[nH]cc(C=CBr)c(=O)[nH]1` [BVU, 5-(2-bromovinyl)-uracil], for which, in series [2], the “inhibition of dihydrothymidine dehydrogenase” value is reported as “is an inhibitor”. Moreover, in series [3], the toxicity to humans entry was “toxic to humans”.

In the case of `O=c1[nH]cc(Br)c(=O)[nH]1` [5-bromouracil], in series [1] (pH 8, read-out: % Inactivation), the inhibition at 100 µM stood at 75%.

Turning to `N#Cc1c[nH]c(=O)[nH]c1=O` [5-cyanouracil], the “relative first-order rate constants for inactivation of enzyme (parenthetical values)” value (“relative first-order rate constants” for short) in series [1] was “(14)”. Besides, the inhibition at 100 µM in series [1] (setting [5]) was determined as 100%.

As for `CC#Cc1c[nH]c(=O)[nH]c1=O` [5-propynyluracil, 5-Propynyluracil], the melting point was 275 to 280 °C (dec.). Further, in series [1], the “relative first-order rate constants” value is listed as “(8)”. Further, the inhibition at 100 µM in series [1] (setting [5]) came out at 100%.

Regarding `O=c1[nH]cc(C#CBr)c(=O)[nH]1` [5-bromoethynyluracil], in series [1], the “relative first-order rate constants” value was “(8)”. Moreover, the inhibition at 100 µM in series [1] (setting [5]) came out at 100%.

For `C=C(Cl)c1c[nH]c(=O)[nH]c1=O` [5-(1-chlorovinyl)uracil], the “relative first-order rate constants” value in series [1] was “(5)”. In series [1] (setting [5]), the inhibition at 100 µM was 100%.

As to `C=Cc1c[nH]c(=O)[nH]c1=O` [5-vinyluracil], the inhibition at 100 µM in series [1] (setting [5]) was determined as 86%.

Turning to `O=c1[nH]cc(I)c(=O)[nH]1` [Example 5-iodouracil, 5-iodouracil], the “relative first-order rate constants” value in series [1] is “(4)”. The inhibition at 100 µM in series [1] (setting [5]) turned out to be 100%.

As to `O=c1[nH]cc(F)c(=O)[nH]1` [FU, 5-fluorouracil], the “% Mice Tumor Free on Day 17” value was determined as 0% in series [4] (5-FU 10 mg/kg i.p. days 1-9, no EU); 0% in series [4] (5-FU 10 mg/kg p.o. days 1-9, no EU); 12.5% in series [4] (5-FU 15 mg/kg i.p. days 1-9, no EU); 12.5% in series [4] (5-FU 15 mg/kg p.o. days 1-9, no EU); 12.5% in series [4] (5-FU 20 mg/kg i.p. days 1-9, no EU); 12.5% in series [4] (5-FU 20 mg/kg p.o. days 1-9, no EU). Besides, the “% Mice Tumor Free on Day 17” value in series [4] (5-FU 25 mg/kg p.o. days 1-9, no EU) is on record as 12.5%; in series [4] (5-FU 30 mg/kg i.p. days 1-9, no EU), 87.5^a %; in series [4] (5-FU 30 mg/kg p.o. days 1-9, no EU) it was 12.5%.
